{
  "source": "patent US20240299505A1",
  "about": "“COMPOSITION FOR IMPROVING, PREVENTING OR TREATING INFLAMMATORY BOWEL DISEASE COMPRISING NAMPT-DERIVED PEPTIDE AS ACTIVE INGREDIENT” (Industry-University Cooperation Foundation Hanyang …, priority 2023, published 2024)",
  "key": {"colonic tissues": {"tested_on": "colonic tissues", "conditions": "mice with acute colitis, intraperitoneal injection, Cy5.5 conjugate", "description": "The number of ITGA6+ or ITGB1+ cells was analyzed by FACS.\nMice were intravenously injected with a lentivirus expressing nonspecific shRNA (shNS) or shRNA specific for ITGA6 (sh ITGA6) or ITGB1 (shITGB1) 2 times and then orally administered with DSS (Acute or chronic Colitis) and rCT-NAMPT, and then experiments were performed.\nNext, to evaluate the specificity of rCT-NAMPT, ITGA6- or ITGB1-knockdown mice were generated through sh-Lentiviral transduction. The mice were treated with DSS and administered rCT-NAMPT/Cy5.5 via intraperitoneal injection on day 6."}, "[1]": {"tested_on": "DSS-induced chronic colitis", "test": "DSS-induced chronic colitis mouse model", "assay_type": "in vivo, C57BL/6 mice", "conditions": "50 μg/kg i.p.", "method": "FIG. 10 confirms an effect of rCT-NAMPT in mice with DSS-induced chronic colitis. Specifically, (A) Scheme of the chronic colitis model treated with rCT-NAMPT (50 μg/kg) and 3% DSS. (B) The survival of mice was tracked for 9 weeks, and mortality was calculated for n=15 mice per group. Statistical differences between rVehicle treated animals were recorded (log-rank test). […] (C) Weight loss of rVehicle, rCT or rCT-NAMPT treatment in mice was confirmed (n=15). (D) Image (upper) and length (lower) of colon in 3% DSS-induced chronic colitis mice with rVehicle, rCT or rCT-NAMPT. (E) H&E staining of the colon (left) (n=8): a representative image. H&E staining was used to evaluate histopathology scores in 3% DSS-induced chronic colitis mice treated with rVehicle, rCT, or rCT-NAMPT. […]\n(§1) Dextran sodium sulfate (DSS)-induced acute or chronic colitis mouse models were constructed using 6-week-old C57BL/6 female mice (Samtako, Osan, Korea). […] The survival of mice was tracked for 12 days, and mortality was measured for n=15 mice per group. […] The survival of mice was tracked for 9 weeks, and mortality was measured for n=15 mice per group. […]\nBody weight, degree of bloody stool, and stool concentration were measured every day during the colitis induction to obtain the clinical score. The clinical score was determined by two trained investigators who were not provided with information about the experiment. […]"}, "[2]": {"tested_on": "DSS-induced acute colitis", "test": "DSS-induced acute colitis mouse model (Lenti-shNS or Lenti-shITG transduced)", "assay_type": "in vivo, C57BL/6 mice", "conditions": "Lenti-shNS-transduced mice", "method": "FIG. 8 confirms an effect of rCT-NAMPT in mice with DSS-induced acute colitis. Specifically, (A) an experimental plan for an acute colitis model treated with rCT-NAMPT (50 μg/kg) and 3% DSS after introduction of Lenti-shNS or Lenti-shITG virus (left) and the survival rates of mice monitored for 12 days (right). Mortality was measured with n=15 mice per group. Statistical differences between rVehicle treated animals were recorded (log-rank test). […] (B) confirms a change in body weight of the experimental animals during an experiment period in (A) above (n=8). (C) is a colitis score result of the experimental animals in (A) above. […] (H) Results of hematoxylin and eosin (H&E) staining of the colon (left) (n=10): Representative radiohistopathology scores were evaluated using rVehicle, rCT, or rCT-NAMPT in 3% DSS-treated mice as illustrated in techniques (Materials and Methods). Statistical significance was evaluated using a Student's t-test using Bonferroni correction (***p<0.001) in comparison to rVehicle;\nas §1"}},
  "data": [
    {"sequence": "TWYKIAFQRNRK [rCT]", "values": [
      {"measurement": "tissue targeting (colon versus other organs)", "setting": "colonic tissues", "result": "specifically targeted colonic tissues in mice with acute colitis, but not in other organs"},
      {"measurement": "body weights", "setting": "[1]", "result": "Body weights fluctuated"},
      {"measurement": "survival rate / mortality", "setting": "[2]; 3% DSS, 50 μg/kg i.p. 8 times, 12 days", "result": "Neither rVehicle or rCT significantly affected mortality"},
      {"measurement": "colon histology (H&E staining)", "setting": "[2]; DSS", "result": "disrupted by DSS"}
    ]}
  ]
}
